Columns and labels:
[1] = Aggregation potential of CRY2 or VVD fusion proteins by protein arrangement; format: cell-based; details: protein arrangement and light stimulation paradigm
Text: FIGS. 9A-9B show the aggregation potential of CRY2 or VVD fusion proteins based on the protein arrangement and light stimulation paradigm combination. Studies indicate that the ability of Cry2 or VVD photoreceptor to stimulate clustering and activation are dependent on the protein arrangement as well as the light stimulation paradigm.

HEK cells [2] = assay: Acute blue light stimulation: pathological aggregate formation and toxicity; format: cell-based
Text: FIG. 10B is a schematic of a screening pipeline to use the induction of neurodegenerative disease pathology to identify therapeutic compounds that rescue toxicity and prevent or remove the formation of the induced neurodegenerative disease pathology.

live cells = assay: Blue light-induced clustering/aggregation of CRY2OLIG constructs visualized in live cells; format: cell-based; details: specific blue light stimulation paradigms
Text: FIGS. 2A-2B describe methods to generate neuropathological aggregate proteins containing an LCD/IDR/Prion-like domain with light using TDP-43 and CRY2OLIG as an example. Various protein arrangements and blue light exposure paradigms were developed to induce protein aggregation of proteins and protein fragments containing LCD/IDR/prion-like domains, promote the mislocalization of nuclear proteins and recapitulate the neuropathology of neurodegenerative diseases. TDP-43 is a predominantly nuclear protein that contains an IDR/IDD/prion-like domain, and is mislocalized and aggregated in ALS, FTD, and some AD patients, as an example. DNA sequences were engineered to generate amino acid sequences that encode for a the CRY2OLIG protein that clusters when exposed to blue light generated a fusion protein either the entire TDP-43 protein (cry2-TDP43-mCh) or just the low complexity domain (LCD/IDD/prion-like domain), which makes TDP-43 aggregation prone (Cry2-274-mCh). As a control, CRY2OLIG alone was used. All constructs were fused to a fluorescent protein called mCherry (mCh) to visualize the proteins in live cells.

HEK293 cells [3] = assay: Fluorescence recovery after photobleaching (FRAP) of light-induced TDP-43 inclusions; format: cell-based; details: persistent / chronic blue light-induced inclusions
Text: (§1) FIGS. 4A-4E show light-induced aggregation of low-complexity domain proteins. Optogenetic TDP-43 fragments containing the low-complexity domain (LCD) undergo progressive aggregation with light stimulation. […] (FIGS. 4C-4D) Optogenetic LCD fragments also continue to aggregate following brief light pulses, growing in size over time. (FIG. 4E) Persistent blue light stimulation of the TDP-43 LCD forms intracellular aggregates in the cells.
FIGS. 5A-5K show chronic blue light stimulation induces optoTDP43 mislocalization and aggregation that recapitulates pathological hallmarks seen in patient CNS tissue. HEK293 cells expressing optoTDP43-mCh were exposed to 488 nm LED stimulation or darkness for up to 36 hours. […] (FIG. 5E) Fluorescence recovery after photobleaching (FRAP) imaging was performed to assess dynamicity of optoTDP43 structures. […] (FIG. 5F) Detergent-solubility of optoTDP43 structures was assessed by subcellular fractionation to confirm aggregated state of light-induced optoTDP43 granules. […] Human ReN neurons expressing TDP43-mCh or optoTDP43 were exposed to chronic blue light stimulation and viability was simultaneously monitored by longitudinal imaging.

HEK cells [4] = assay: Light-induced oligomerization of optogenetic TDP-43 fragments, live confocal microscopy; format: cell-based; details: for oligomerization after a brief pulse of blue light: 8 sec, live confocal microscopy; for oligomerization after a brief pulse of blue light / persistence of oligomers: 10% laser power, 488 nm; for persistence of oligomers: after brief pulse 8 sec
Text: as §1
Beyond protein aggregation, this system creates light-induced pathologies that mimic key pathological features found in patients making it unique compared to overexpression systems. The TDP-43 protein, which contains an LCD, was combined with the CRY2OLIG photoreceptor domain which clusters when exposed to blue light and becomes insoluble and aggregated with persistent light treatment. Fusion proteins of the full length and partial LCD sequence were generated to recapitulate human neurodegenerative disease pathology, including the cytoplasmic mislocalization of nuclear proteins that occurs in patients with ALS and FTD. This system could induce neurodegenerative disease protein aggregates in live HEK cells by exposing them to various blue light stimuli paradigms (FIGS. 4-5). In addition, biochemical hallmarks of ALS, FTD, and AD (FIG. 7) were produced showing that the cell is responding to the light-induced aggregates as observed in patient CNS despite the addition of these tags. […] Employing this DNA arrangement and light stimulation system as an example, cytoplasmic TDP-43 aggregates were obtained that are also ubiquitinylated, cleaved, and hyperphosphorylated as observed in ALS, FTD, and AD patients. TDP-43 pathology is also found in AD as well as Chronic Traumatic Encephalopathy (CTE) thus highlighting the potential disease relevance of this work. In addition, a protein arrangement and light stimulation paradigm was developed to induce the aggregation of α-synuclein (FIG. 6), which is found in the CNS of patients diagnosed with Parkinson's Disease and Lewy Body Dementia. Methods were also developed to induce intracellular aggregation of Tau protein using both the Cry-PHR and LOV photoreceptors (FIG. 7) and persistent blue light stimulation. These tau tangles are pathological hallmarks of AD, FTD and CTE in HEK cells. […] Finally, it was shown that this method can be utilized to seed aggregations, as aggregates of TDP-43 formed using this method recruit endogenous TDP-43 to seed the pathogenic neuropathology (FIGS. 5F, 5G).

HEK293 cells [5] = assay: Detergent-solubility by subcellular fractionation; format: cell-based; details: with and without light treatment; chronic blue light stimulation
Procedure: (§2) FIGS. 5A-5K show chronic blue light stimulation induces optoTDP43 mislocalization and aggregation that recapitulates pathological hallmarks seen in patient CNS tissue. HEK293 cells expressing optoTDP43-mCh were exposed to 488 nm LED stimulation or darkness for up to 36 hours. […] (FIG. 5E) Fluorescence recovery after photobleaching (FRAP) imaging was performed to assess dynamicity of optoTDP43 structures. […] (FIG. 5F) Detergent-solubility of optoTDP43 structures was assessed by subcellular fractionation to confirm aggregated state of light-induced optoTDP43 granules. […] In addition to increased insolubility of exogenous, full-length optoTDP43 (top band), chronic blue light exposure also results in recruitment of aberrant optoTDP43 cleavage products (middle bands), as well as endogenous full-length TDP-43 and disease-relevant cleavage products (bottom bands), to the detergent-insoluble, urea-soluble fraction of cell lysates as is observed in patient tissue. (FIG. 5G) To confirm direct recruitment of non-optogenetic TDP-43 species to exogenous light-induced optoTDP43 inclusions, EGFP-tagged TDP-43 was co-expressed with optoTDP43 or the Cry2 photoreceptor-only control. […] Human ReN neurons expressing TDP43-mCh or optoTDP43 were exposed to chronic blue light stimulation and viability was simultaneously monitored by longitudinal imaging.

HEK293 cells [6] = assay: Immunofluorescence analysis of pathological hallmarks of light-induced optoTDP43 aggregates; format: cell-based
Procedure: FIGS. 5A-5K show chronic blue light stimulation induces optoTDP43 mislocalization and aggregation that recapitulates pathological hallmarks seen in patient CNS tissue. HEK293 cells expressing optoTDP43-mCh were exposed to 488 nm LED stimulation or darkness for up to 36 hours. […] (FIG. 5E) Fluorescence recovery after photobleaching (FRAP) imaging was performed to assess dynamicity of optoTDP43 structures. […] (FIG. 5F) Detergent-solubility of optoTDP43 structures was assessed by subcellular fractionation to confirm aggregated state of light-induced optoTDP43 granules. […] In addition to increased insolubility of exogenous, full-length optoTDP43 (top band), chronic blue light exposure also results in recruitment of aberrant optoTDP43 cleavage products (middle bands), as well as endogenous full-length TDP-43 and disease-relevant cleavage products (bottom bands), to the detergent-insoluble, urea-soluble fraction of cell lysates as is observed in patient tissue. (FIG. 5G) To confirm direct recruitment of non-optogenetic TDP-43 species to exogenous light-induced optoTDP43 inclusions, EGFP-tagged TDP-43 was co-expressed with optoTDP43 or the Cry2 photoreceptor-only control. […] (FIG. 5H-5J) Immunofluorescence analysis was performed on light-induced optoTDP43 aggregates to confirm pathological hallmarks seen in patient tissue. optoTDP43 inclusions appear to be (FIG. 5H) ubiquitinated, (FIG. 5I) hyperphosphorylated, and (FIG. 5J) p62-positive, all of which have been observed with TDP-43 inclusions in patient CNS. (FIG. 5K) Automated high-throughput confocal microscopy was performed to assess the neurotoxicity of light-induced optoTDP43 inclusions. Human ReN neurons expressing TDP43-mCh or optoTDP43 were exposed to chronic blue light stimulation and viability was simultaneously monitored by longitudinal imaging.

Human ReN neurons = assay: Neurotoxicity by automated high-throughput confocal longitudinal imaging; format: cell-based; details: chronic blue light stimulation
Procedure: as §2

HEK293 cells [7] = assay: Chronic blue light stimulation: optoTDP43 mislocalization and aggregation; format: cell-based
Procedure: as §2

EGFP-tagged TDP-43 = target: T1, EGFP-tagged TDP-43 (Homo sapiens, UniProt Q13148); assay: Recruitment of co-expressed EGFP-tagged TDP-43 to light-induced inclusions (co-localization); format: cell-based; details: chronic blue light stimulation
T1 construct: expressed in transfected cells
Procedure: as §2

[8] = cited from earlier work
[9] = target: the molecule itself; assay: self-association in live cells on blue light, mCherry fluorescence

T1 sequence (Q13148 whole entry): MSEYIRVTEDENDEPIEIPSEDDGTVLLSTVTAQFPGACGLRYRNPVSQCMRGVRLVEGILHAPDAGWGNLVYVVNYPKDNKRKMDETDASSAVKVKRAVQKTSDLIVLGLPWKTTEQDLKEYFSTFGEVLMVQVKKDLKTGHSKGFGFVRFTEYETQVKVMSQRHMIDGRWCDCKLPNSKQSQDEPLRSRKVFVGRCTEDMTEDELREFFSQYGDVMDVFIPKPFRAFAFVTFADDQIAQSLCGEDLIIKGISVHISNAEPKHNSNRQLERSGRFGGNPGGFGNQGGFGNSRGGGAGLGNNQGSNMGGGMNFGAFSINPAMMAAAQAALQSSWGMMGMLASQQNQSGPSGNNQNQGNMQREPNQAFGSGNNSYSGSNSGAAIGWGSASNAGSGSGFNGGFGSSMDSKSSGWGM

Molecule: TDP-43-CRY2OLIG-mCh: full length TDP-43, Cry2olig, mCherry reporter arrangement
- ability to aggregate [1]: mislocalizes but does not exhibit the ability to aggregate

Molecule: optoLCD: CRY2OLIG fused to just the low complexity domain of TDP-43 and mCherry
- time to formation of pathological aggregates (HEK cells [2]; acute stimulation): ≤ 1 hour
- toxicity of aggregates (HEK cells [2]; aggregates grow in size over time): become toxic over time
- clustering / aggregation with blue light stimulation (reversibility) (live cells): forms irreversible aggregates
- fluorescence recovery after photobleaching (FRAP) (HEK293 cells [3]): do not recover from FRAP
- oligomerization after a brief pulse of blue light (HEK cells [4]): rapidly oligomerize
- persistence of oligomers (HEK cells [4]): persist much longer than the Cry2 photoreceptor alone

Molecule: optoRRM2+LCD: Optogenetic C-terminal fragment of TDP-43 containing RRM2 and the low-complexity domain
- oligomerization after a brief pulse of blue light (HEK cells [4]): rapidly oligomerize
- persistence of oligomers (HEK cells [4]): persist much longer than the Cry2 photoreceptor alone

Molecule: optoTDP43: CRY2OLIG fused to the entire TDP-43 protein and mCherry
- detergent-solubility (HEK293 cells [5]): drastic shift to the insoluble fraction
- p62 staining of inclusions (HEK293 cells [6]): p62-positive
- phosphorylation of inclusions (HEK293 cells [6]): hyperphosphorylated
- ubiquitination of inclusions (HEK293 cells [6]): ubiquitinated
- clustering / aggregation with blue light stimulation (reversibility) (live cells): forms irreversible aggregates
- neuron survival / viability (Human ReN neurons): significantly decreased viability over time
- localization (HEK293 cells [7]; 488 nm LED stimulation up to 36 hours, confirmed by nuclear/cytoplasmic fractionation): gradual cytoplasmic mislocalization
- aggregation (HEK293 cells [7]; simultaneous chronic blue light exposure and high-throughput automated confocal microscopy): increases in propensity with increasing light exposure
- fluorescence recovery after photobleaching (FRAP) (HEK293 cells [3]): Lack of fluorescence recovery
- co-localization with EGFP-TDP43 (EGFP-tagged TDP-43): strong co-localization

B1: NcVVDY50W: NcVivid Y50W substitution (protein)
chain: HTLYAPGGYDIMGWLIQIMNRPNPQVELGPVDTSCALILCDLKQKDTPIVYASEAFLYMTGYSNAEVLGRNCRFLQSPDGMVKPKSTRKYVDSNTINTMRKAIDRNAEVQVEVVNFKKNGQRFVNFLTMIPVRDETGEYRYSMGFQCETE
- dissipation from the dimerized state ([8]; Y50W change): slower ability to dissipate from the dimerized state

B2: CRY2OLIG-mCh (other)
chain: MKMDKKTIVWFRRDLRIEDNPALAAAAHEGSVFPVFIWCPEEEGQFYPGRASRWWMKQSLAHLSQSLKALGSDLTLIKTHNTISAILDCIRVTGATKVVFNHLYDPVSLVRDHTVKEKLVERGISVQSYNGDLLYEPWEIYCEKGKPFTSFNSYWKKCLDMSIESVMLPPPWRLMPITAAAEAIWACSIEELGLENEAEKPSNALLTRAWSPGWSNADKLLNEFIEKQLIDYAKNSKKVVGNSTSLLSPYLHFGEISVRHVFQCARMKQIIWARDKNSEGEESADLFLRGIGLREYSRYICFNFPFTHEQSLLSHLRFFPWDADVDKFKAWRQGRTGYPLVDAGMRELWATGWMHNRIRVIVSSFAVKFLLLPWKWGMKYFWDTLLDADLECDILGWQYISGSIPDGHELDRLDNPALQGAKYDPEGEYIRQWLPELARLPTEWIHHPWDAPLTVLKASGVELGTNYAKPIVDIDTARELLAKAISRTRGAQIMIGAA
notes: also called Cry2-mCh; Cry2 photoreceptor-only control; not shown: mCherry reporter and any linker
- binding result [9]: binds

B3: CRY2OLIG: Cryptochrome 2 PHR Domain with E490G substitution (protein)
chain: B2 chain
- efficiency of clustering upon blue light stimulation ([8]; E490G mutation versus endogenous sequence): slightly increased efficiency of clustering

B4: Cry2-mCh: As a control, CRY2OLIG alone fused to mCherry (protein)
chain: B2 chain
modifications: left off: large carriers
notes: As a control, CRY2OLIG alone fused to mCherry
- clustering / aggregation with blue light stimulation (reversibility) (live cells): reversibly clusters
- disassembly (HEK cells [4]; after brief pulse of blue light): ~10 min
- co-localization with EGFP-TDP43 (EGFP-tagged TDP-43): no co-localization
